Key:
[1] = Mixtures of pure pigments with cosmetic oil: increase in viscosity (rheometer); format: physicochemical; details: for dispersibility of pure pigments in the oil: judged from the increase in viscosity; for Increase in viscosity, Carbon Black (CI77266, UniPure Black LC 902, Sensient): pigment:oil 15:85 w/w; for Increase in viscosity, Carbon Black (CI77266, UniPure Black LC 902, Sensient) / Increase in viscosity, (Yellow) Iron Oxide (CI 77492); Dimethicone (BYO-DS4, KOBO) / Increase in viscosity, (Black) Iron Oxides (CI 77499); Dimethicone (BYO-DS3, KOBO) / Increase in viscosity, Titanium Dioxide (CI 77891); Dimethicone (DHL-TRI-77891, US Cosmetics) / Increase in viscosity, (Red) Iron Oxides (CI 77491); Dimethicone (BYO-DS3, KOBO): rheometer MCR 302, 20° C., 1/100 sec, triplicate averaged; for Increase in viscosity, (Yellow) Iron Oxide (CI 77492); Dimethicone (BYO-DS4, KOBO): pigment:oil 40:60 w/w; for Increase in viscosity, (Black) Iron Oxides (CI 77499); Dimethicone (BYO-DS3, KOBO) / Increase in viscosity, Titanium Dioxide (CI 77891); Dimethicone (DHL-TRI-77891, US Cosmetics): pigment:oil 60:40 w/w; for Increase in viscosity, (Red) Iron Oxides (CI 77491); Dimethicone (BYO-DS3, KOBO): pigment:oil 65:35 w/w
Description: Here too, the pigment wetting properties of cosmetic oils can be determined by measuring the viscosity of the pure oil, in comparison with the viscosity of the oil after dispersing a defined amount of the pure pigment. The smaller the increase in viscosity thus determined, the better the property of an oil in wetting pigments on the surface and accordingly in dispersing.
The mixture is then stirred for 3 min at 3,500 rpm's and placed onto rheometer for measurement (Anton Paar Modular Compact Rheometer model MCR 302, 20° C., 1/100 sec). The viscosities of the neat cosmetics oils are also measured. Pigment mixtures and neat cosmetic oils are run in triplicate and the results averaged.
The increase in viscosity comparing the neat cosmetic oil and the pigment/cosmetic oil mixture is represented below (given in mPa·s): […]

[2] = Pigment/powder dispersion: increase in viscosity of the oil (Brookfield); format: physicochemical; details: for Increase in viscosity: 60% emollient + 40% pigment/powder mixture (Table 2), Brookfield, spindle 5, 50 rpm at 20° C.; for dispersibility of the pigment/powder mixture in the oil: judged from the increase in viscosity
From the text: Alkyl carboxylates according to the invention can help in the wetting of hydrophobized pigments and accordingly can be widely used in coloured cosmetics. The pigment wetting properties of cosmetic oils can be determined by measuring the viscosity of the pure oil, in comparison with the viscosity of the oil after dispersing a defined amount of pigments. The smaller the increase in viscosity thus determined, the better the property of an oil in wetting pigments on the surface and accordingly in dispersing.
The viscosities of the oils before addition of the pigment/powder mixture are determined using a Brookfield viscometer, spindle 5, 50 rpm at 20° C. After dispersion of the pigment/powder mixture, the viscosity is again determined in an identical way.

CCCCCCCCCCCC(=O)OCCC(C)C [Dermofeel ® sensolv, Isoamyl Laurate]
dispersibility of pure pigments in the oil [1]: improved
Increase in viscosity, Carbon Black (CI77266, UniPure Black LC 902, Sensient) [1]: 223 mPa·s
Increase in viscosity, (Yellow) Iron Oxide (CI 77492); Dimethicone (BYO-DS4, KOBO) [1]: 195 mPa·s
Increase in viscosity, (Black) Iron Oxides (CI 77499); Dimethicone (BYO-DS3, KOBO) [1]: 458 mPa·s
Increase in viscosity, Titanium Dioxide (CI 77891); Dimethicone (DHL-TRI-77891, US Cosmetics) [1]: 121 mPa·s
Increase in viscosity, (Red) Iron Oxides (CI 77491); Dimethicone (BYO-DS3, KOBO) [1]: 2238 mPa·s
Increase in viscosity [2]: 1820 mPa · s
dispersibility of the pigment/powder mixture in the oil [2]: improved

CCCCCCCCCCCCCCCCOC(=O)C(CC)CCCC (stereo not shown) [Cetyl Ethylhexanoate]
dispersibility of pure pigments in the oil [1]: improved
Increase in viscosity, Carbon Black (CI77266, UniPure Black LC 902, Sensient) [1]: 625 mPa·s
Increase in viscosity, (Yellow) Iron Oxide (CI 77492); Dimethicone (BYO-DS4, KOBO) [1]: 2357 mPa·s
Increase in viscosity, (Black) Iron Oxides (CI 77499); Dimethicone (BYO-DS3, KOBO) [1]: 8718 mPa·s
Increase in viscosity, Titanium Dioxide (CI 77891); Dimethicone (DHL-TRI-77891, US Cosmetics) [1]: 807 mPa·s
Increase in viscosity, (Red) Iron Oxides (CI 77491); Dimethicone (BYO-DS3, KOBO) [1]: 5393 mPa·s
Increase in viscosity [2]: 2520 mPa · s
dispersibility of the pigment/powder mixture in the oil [2]: improved
